In brackets after ≈: the same amount, converted by molar mass. Where two headings read alike, the source gives them in different places.
Tests used:
C. difficile spores = assay: Spore viability testing; format: cell-based; conditions: for Effect on viability of C. difficile spores (CFU): x2 MIC, 24 hours; for Inhibition of spore germination: x5 MIC
C. difficile ATCC43596 = assay: Minimum inhibitory concentration assay; conditions: for MIC: Clostridioides difficile, ATCC43596, 48 h, read-out: C. difficile ATCC43596 MIC; for C. difficile ATCC43596 MIC: 48 h, 37° C.
Vero cells = assay: Cytotoxicity MTT assay, Vero cells; format: cell-based, monkey
Procedure: (§1) Cytotoxicity Assays. Cytotoxicity assays were performed using Vero monkey kidney (ATCC CCL-81) and HepG2 human hepatoblastoma cell (ATCC HB-8065) lines. Vero or HepG2 cells were cultured in 75 cm^2 flasks and transferred to 96-well cell culture plates using ATCC-formulated Eagle's minimum essential medium containing 10% FBS, penicillin, and streptomycin. Serially diluted aliquots of each test compound at concentrations ranging from 0.78-200 μg/mL were added to the cells. […] The plates were incubated and cytotoxic effects were determined via the MTT assay.
(§2) Selected molecules were tested for cytotoxicity (IC50) in cancer and healthy cells via a MTT colorimetric assay.
(§3) Cytotoxicity Assays. For Vero cells: Vero cell was cultured in Complete eagle's minimum essential growth medium (EMEM) containing L-glutamine, sodium pyruvate, minimum essential amino acids, penicillin-streptomycin and 10% fetal bovine serum. Inoculating number of cells were 400,000 cells/mL and a final 40,000 cells/well. After 72 h of exposure of molecules to this cell line at concentrations ranging from 0.78 to 200 μg/mL, the culture medium was changed to complete EMEM without phenol red before addition of yellow tetrazolium dye; MTT. Viability was assessed on the basis of cellular conversion of MTT into a purple formazan product. The absorbance of the colored formazan product was measured at 570 nm by BioTek Synergy HT Spectrophotometer. Linearity of the MTT response to the cell number was determined.

Hemolysis, sheep blood = format: cell-based; conditions: sheep, sheep blood
MraY = conditions: read-out: MraY inhibition IC50
AsPc-1 cells [1] = assay: Synergistic assay (checkerboard), 11 and Gemcitabine; format: cell-based
Procedure: (§4) The FIC index was calculated according to the following equation. ΣFIC=FICA+FICB=CA/MICA+CB/MICB where MICA and MICB are MIC of drugs A and B, CA and CB are the concentrations of drugs A and B used in combination. In these interaction studies, ΣFIC of less than 0.5 represents synergistic activity.
These experiments were performed in the same manner as those of Example 7.

[2] = Cytotoxicity MTT assay, Vero cells; format: cell-based, monkey; conditions: monkey
Procedure: as §1, §2, §3

L12210 = assay: Cytotoxicity MTT assay, L12210; format: cell-based
Procedure: as §2
(§5) Each cell was cultured in recommended medium by ATCC, and the IC50 data were obtained with each cell line.

KB = assay: Cytotoxicity MTT assay, KB; format: cell-based
Procedure: as §2, §5

LoVo = assay: Cytotoxicity MTT assay, LoVo; format: cell-based
Procedure: as §2, §5

SK-OV-3 = assay: Cytotoxicity MTT assay, SK-OV-3; format: cell-based
Procedure: as §2, §5

MDA-MB-435S = assay: Cytotoxicity MTT assay, MDA-MB-435S; format: cell-based
Procedure: as §2, §5

AsPc-1 = assay: Cytotoxicity MTT assay, AsPc-1; format: cell-based
Procedure: as §2, §5

Panc-1 = assay: Cytotoxicity MTT assay, Panc-1; format: cell-based
Procedure: as §2, §5

HPAF-II = assay: Cytotoxicity MTT assay, HPAF-II; format: cell-based
Procedure: as §2, §5

AsPc-1 cells [3] = assay: Synergistic assay (checkerboard), 11 and Paclitaxel; format: cell-based
Procedure: as §4

HepG2 = assay: Cytotoxicity MTT assay, HepG2; format: cell-based; conditions: human
Caco-2 = assay: Cytotoxicity MTT assay, Caco-2; format: cell-based; conditions: human
Procedure: as §2, §5

M. jannaschii AgIH = M. jannaschii AgIH (Methanocaldococcus jannaschii (strain ATCC 43067 / DSM 2661 / JAL-1 / JCM 10045 / NBRC 100440) (Methanococcus jannaschii), UniProt Q58513); conditions: read-out: AgIH inhibition IC50, M. jannaschii AgIH
M. jannaschii AgIH, sequence (Q58513 whole entry, looked up): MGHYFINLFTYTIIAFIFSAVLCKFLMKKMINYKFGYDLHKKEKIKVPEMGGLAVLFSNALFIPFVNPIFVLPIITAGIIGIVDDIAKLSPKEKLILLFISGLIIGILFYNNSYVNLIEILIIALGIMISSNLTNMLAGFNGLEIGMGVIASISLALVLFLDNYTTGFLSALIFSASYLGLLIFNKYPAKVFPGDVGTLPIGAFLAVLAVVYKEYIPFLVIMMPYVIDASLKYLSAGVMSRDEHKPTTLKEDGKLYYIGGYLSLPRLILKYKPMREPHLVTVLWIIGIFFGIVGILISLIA

With `CCCCCCCc1ccc(NC(=O)CCCN(C)[C@H](C(N)=O)[C@H](OC2O[C@H](CN)[C@@H](O)[C@H]2O)[C@H]2O[C@@H](n3ccc(=O)[nH]c3=O)C(O)[C@H]2O)cc1` (stereo partly drawn) [Compound 9] the “Effect on viability of C. difficile spores (CFU)” value (C. difficile spores) was “caused loss of viability of C. difficile spores”, the Anti-C. difficile activity (C. difficile ATCC43596) was “display anti-C. difficile activity” and the MIC (C. difficile ATCC43596) was 25 µg/mL (≈ 34.7 µM).

With `CCCCCCCc1ccc(NC(=O)CCCN[C@H](C(N)=O)[C@H](OC2O[C@H](CN)[C@@H](O)[C@H]2O)[C@H]2O[C@@H](n3ccc(=O)[nH]c3=O)C(O)[C@H]2O)cc1` (stereo partly drawn) [Compound 10] the “Effect on viability of C. difficile spores (CFU)” value (C. difficile spores) was “caused loss of viability of C. difficile spores”, the IC50 (Vero cells; Primates, Vero, Table 2, read-out: Vero cells IC50) was 7080 nM and the IC50 (Hemolysis, sheep blood) was 70000 nM. The Anti-C. difficile activity (C. difficile ATCC43596) was “display anti-C. difficile activity”.

For `CN(CCCC(=O)NCc1ccc(N2CCC(Oc3ccc(C(F)(F)F)cc3)CC2)cc1)[C@H](C(N)=O)[C@H](O[C@@H]1O[C@H](CN)[C@@H](O)[C@H]1O)[C@H]1O[C@@H](n2ccc(=O)[nH]c2=O)[C@H](O)C1O` (stereo partly drawn) [Compound 12], the Anti-C. difficile activity (C. difficile ATCC43596) was “display anti-C. difficile activity” and the MIC (C. difficile ATCC43596) was 50 µg/mL (≈ 56.8 µM).

In the case of `CN(CCCN)[C@H](C(=O)O)[C@H](O[C@@H]1O[C@H](CN)[C@@H](O)[C@H]1O)[C@H]1O[C@@H](n2ccc(=O)[nH]c2=O)[C@H](O)[C@@H]1O` [FR-900493 (1), FR-900493, reference compound], the IC50 (MraY) is reported as 25000 nM and the “C. difficile ATCC43596 MIC” value (C. difficile ATCC43596) is reported as greater than 50 µg/mL.

With `Nc1ccn([C@@H]2O[C@H](CO)[C@@H](O)C2(F)F)c(=O)n1` [Gemcitabine, reference compound] the IC50 (AsPc-1 cells [1]; Homo sapiens, ASPC1, Gemcitabine alone, AsPc-1 cells, read-out: IC50 B) was 390 nM and the “Concentration in combination resulting in AsPc-1 cell death” value (AsPc-1 cells [1]; as low as, 11 together with Gemcitabine) was 0.977 µM.

`CC(=O)O[C@H]1C(=O)[C@@]2(C)[C@H]([C@H](OC(=O)c3ccccc3)[C@]3(O)C[C@H](OC(=O)[C@H](O)[C@@H](NC(=O)c4ccccc4)c4ccccc4)C(C)=C1C3(C)C)[C@]1(OC(C)=O)CO[C@@H]1C[C@@H]2O` [Taxol, Paclitaxel] showed an IC50 at 72 h [2] of 190 nM, an IC50 (L12210; read-out: Cytotoxicity IC50 L12210) of 550 nM and an IC50 (KB; Homo sapiens, KB, read-out: Cytotoxicity IC50 KB) of 790 nM. For the same molecule, the IC50 (LoVo; Homo sapiens, LoVo, read-out: Cytotoxicity IC50 LoVo) was 57 nM, the IC50 (SK-OV-3; Homo sapiens, SK-OV-3, read-out: Cytotoxicity IC50 SK-OV-3) was 1080 nM and the IC50 (MDA-MB-435S; Homo sapiens, MDA-MB-435S, read-out: Cytotoxicity IC50 MDA-MB-435S) was 110 nM. For the same molecule, the IC50 (AsPc-1; Homo sapiens, ASPC1, read-out: Cytotoxicity IC50 AsPc-1) was 190 nM, the IC50 (Panc-1; Homo sapiens, PANC-1, read-out: Cytotoxicity IC50 Panc-1) was 20 nM and the IC50 (HPAF-II; Homo sapiens, HPAF-II, read-out: Cytotoxicity IC50 HPAF-II) was 20 nM. For the same molecule, the IC50 (AsPc-1 cells [3]; Homo sapiens, ASPC1, Paclitaxel alone, AsPc-1 cells, read-out: IC50 B) was 550 nM and the “Taxol concentration to kill AsPc-1 cells when combined with 11” value (AsPc-1 cells [3]; as low as, combined with 11) was 7 nM.

In the case of `CC(=O)NC[C@H]1CN(c2ccc(N3CCOCC3)c(F)c2)C(=O)O1` [linezolid, reference compound], the “Inhibition of spore germination” value (C. difficile spores) is reported as “did not inhibit the spore germination”.

For `Cc1ncc([N+](=O)[O-])n1CCO` [metronidazole, reference compound], the “Inhibition of spore germination” value (C. difficile spores) was “did not inhibit the spore germination”.

For `CN[C@H](CC(C)C)C(=O)N[C@H]1C(=O)N[C@@H](CC(N)=O)C(=O)N[C@H]2C(=O)N[C@H]3C(=O)N[C@H](C(=O)N[C@H](C(=O)O)c4cc(O)cc(O)c4-c4cc3ccc4O)[C@H](O)c3ccc(c(Cl)c3)Oc3cc2cc(c3O[C@@H]2O[C@H](CO)[C@@H](O)[C@H](O)[C@H]2O[C@H]2C[C@](C)(N)[C@H](O)[C@H](C)O2)Oc2ccc(cc2Cl)[C@H]1O` [vancomycin, reference compound], the “Inhibition of spore germination” value (C. difficile spores) was “did not inhibit the spore germination” and the MIC (C. difficile ATCC43596) was 2.5 µg/mL (≈ 1.73 µM).

Work on Tunicamycin yielded an IC50 (Vero cells; Table 2, read-out: Vero cells IC50) of 120 nM, an IC50 (Vero cells; Table 3, 72 h exposure, read-out: Cytotoxicity IC50 Vero) of 120 nM and an IC50 (L12210; mouse) of 1700 nM. The IC50 (KB; human) was 2500 nM, the IC50 (LoVo; human) was 1700 nM and the IC50 (SK-OV-3; human) was 1850 nM. For the same molecule, the IC50 (MDA-MB-435S; human) was 900 nM, the IC50 (AsPc-1; human) was 460 nM and the IC50 (Panc-1; human) was 625 nM. The IC50 (HPAF-II; human) was less than 98 nM, the IC50 (HepG2) was 190 nM and the IC50 (Caco-2) was 950 nM. The IC50 (M. jannaschii AgIH) was 13300 nM and the “C. difficile ATCC43596 MIC” value (C. difficile ATCC43596) was greater than 50 µg/mL.

Source: patent US20240199677A1, “GLYCOSYLTRANSFERASE INHIBITORS” (CALIFORNIA INSTITUTE OF TECHNOLOGY, priority 2018, published 2024)
